This experiment has as its system HIV-1RF. Nature of the experiment: XTT cytoprotection assay (antiviral activity). Format: cell-based. On the technique in general: Tetrazolium dyes change colour on reduction, which living cells bring about.

SMILES strings stand for the structures.

In general, EC50 refers to the concentration needed to bring the measured effect to its halfway point.

In the case of `O=C(O)CCCC[n+]1ccccc1.[Br-]` [Compound 53, 5-pyridiniovaleric acid], the “antiviral activity (in words)” value is “without antiviral activity”. For the same molecule, the EC50 (Human immunodeficiency virus 1, Table 6, read-out: EC50 %) is greater than 316 µM.

These data come from US7625917B2, “Thiolesters and uses thereof” (priority 1998, dated 2009).
